This note sets out measurements from patent publication US20220056014A1, “PHENYLPYRROLIDINE COMPOUND AND USE THEREOF” (WUHAN HUMANWELL INNOVATIVE DRUG RESEARCH AND DEVELOPMENT …, priority 2018, published 2022).

The target in one data set is T1, PDE4B (Homo sapiens, UniProt Q07343).
T1 construct: purchased Enzo Life Sciences BML-SE522-0020
Description: PDE4B enzyme activity assay (PDE-Glo Phosphodiesterase Assay Kit). In kind it is biochemical. The following applies: for IC50 (PDE4D)/IC50 (PDE4B): selectivity ratio. A digest of the protocol: (§1)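 Recombinant human PDE4B (1 ng/μl working solution) or PDE4D (4 ng/μl working solution) preincubated 5 min at RT with compound, then reacted 20 min with cAMP (2 μM in added solution). PDE-Glo termination/detection and Kinase-Glo steps followed; luminescence read and IC50 fitted.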

Data set [1] deals with Mouse CIA arthritis model. The data set is described as follows: Mouse CIA arthritis model test. Format: in vivo, DBA/1 mice. Conditions: 30 mg/kg oral, twice a day for 21 days; for inhibition rate based on clinical score AUC: AUC day 21 to day 42; for Clinical score (endpoint): day 42, highest score 16. As to the method: (1) Preparation of Type II Collagen/Complete Freund's Adjuvant
Preparation of acetic acid: 2N acetic acid was diluted to 100 mM, filtered with 0.22 μm filter membrane, and stored at 4° C.
Preparation of bovine type II collagen solution: bovine type II collagen (CII) was dissolved in 100 mM acetic acid solution and stored at 4° C. overnight. A final concentration of collagen was 8 mg/mL.
Preparation of emulsion: the CII solution stored overnight was mixed with an equal volume of complete Freund's adjuvant, and homogenized on ice by a high-speed homogenizer at 30,000 rpm for approximately 60 min, until the solution formed a stable emulsion.
After DBA/1 mice were anesthetized with isoflurane, 50 μl of prepared collagen emulsion (containing 200 micrograms of CII) was injected subcutaneously in the tail (2-3 cm from the base of the tail) for immunization. The day of the primary immunization was recorded as day 0, and the following days were recorded sequentially. On day 21, the same volume of collagen emulsion was injected into the tail in the same way. Mice in the normal group were not immunized.
On day 21, the mice that had been induced to have arthritis were randomly grouped according to their body weights, such that the average body weight of each group was consistent, and they were randomly divided into 6 treatment groups for administration, with 10 mice in each group.
G1 group included normal mice without being treated; G2 group was given a blank vehicle; G3 to G7 groups were administrated with the compound at a dose of 30 mg/kg, twice a day for 21 days. The volume of oral administration was 10 mL/kg.
After the enhanced immunization, the disease incidence of the mice was observed every day. When the mice began to develop symptoms (clinical symptoms of arthritis emerged), the symptoms were graded as 0 to 4 according to the different degrees of pathological changes (redness, joint deformation), where the highest score for each limb was 4, and the highest score for each animal was 16. The mice were graded at least three times a week.
The area under curve (AUC) of clinical scores of each group from day 21 to day 42 was calculated, and the inhibition rate % of the clinical score AUC of the administration group was calculated:
Inhibition rate %=1−(administration group AUC/blank vehicle group AUC)*100%
The experimental data are expressed as Mean±standard error (Mean±SEM), and the clinical scores were analyzed with One-way ANOVA, where p<0.05 was considered to be a significant difference.

A further data set deals with T2, PDE4D (Homo sapiens, UniProt Q08499).
T2 construct: purchased Enzo Life Sciences BML-SE523-0020
T2 sequence (Q08499 whole entry): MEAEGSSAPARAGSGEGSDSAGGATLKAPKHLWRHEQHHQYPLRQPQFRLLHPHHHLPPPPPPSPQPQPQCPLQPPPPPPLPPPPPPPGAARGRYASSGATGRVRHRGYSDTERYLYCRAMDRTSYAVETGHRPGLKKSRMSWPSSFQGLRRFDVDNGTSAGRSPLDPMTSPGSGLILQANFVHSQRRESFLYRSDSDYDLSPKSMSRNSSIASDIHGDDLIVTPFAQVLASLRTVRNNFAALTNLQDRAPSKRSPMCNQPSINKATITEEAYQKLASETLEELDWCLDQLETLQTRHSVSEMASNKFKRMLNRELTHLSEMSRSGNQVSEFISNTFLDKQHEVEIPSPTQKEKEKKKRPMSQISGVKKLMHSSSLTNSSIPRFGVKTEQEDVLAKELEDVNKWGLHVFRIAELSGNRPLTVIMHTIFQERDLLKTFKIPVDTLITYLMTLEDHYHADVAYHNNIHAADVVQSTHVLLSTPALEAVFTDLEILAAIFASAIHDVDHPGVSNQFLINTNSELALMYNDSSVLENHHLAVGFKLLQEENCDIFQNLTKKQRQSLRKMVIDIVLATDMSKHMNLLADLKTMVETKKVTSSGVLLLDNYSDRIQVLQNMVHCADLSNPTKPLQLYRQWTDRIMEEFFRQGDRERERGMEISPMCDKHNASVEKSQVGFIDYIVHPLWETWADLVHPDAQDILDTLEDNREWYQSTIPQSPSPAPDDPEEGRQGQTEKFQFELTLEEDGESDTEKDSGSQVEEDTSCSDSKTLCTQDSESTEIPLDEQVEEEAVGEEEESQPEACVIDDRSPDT
The data set is described as follows: PDE4D enzyme activity assay (PDE-Glo Phosphodiesterase Assay Kit). In kind it is biochemical. In a few lines: as §1

A short description of a further data set: Rat pharmacokinetic test. In kind it is in vivo, SD rats. Conditions: male, Sprague-Dawley (SD), plasma, oral gavage 10 mg/kg. How it is done:
In the rat pharmacokinetic test, 3 male SD rats (180-240 g) were fasted overnight, and orally administered with 10 mg/kg of compound to be tested. Blood was collected before the administration, and 15 min, 30 min, 1 h, 2 h, 4 h, 8 h, and 24 h hours after the administration. The blood sample was centrifuged at 8000 rpm for 6 min at 4° C., and the plasma was collected and stored at −20° C. The plasma collected at each time point was added and mixed with 3-5 times the amount of acetonitrile solution containing an internal standard, vortexed for 1 min, centrifuged at 13,000 rpm for 10 min at 4° C. The supernatant was taken and mixed with 3 times the amount of water, and an appropriate amount of the mixture was taken for LC-MS/MS analysis. The main pharmacokinetic parameters were analyzed with WinNonlin 7.0 software non-compartmental model.

The subject of data set [2] is LPS-stimulated TNF-α release. The data set is described as follows: LPS-stimulated TNF-α release in mice. The following applies: Mus musculus, oral 50 mg/kg (positive control 100 mg/kg), 1 mg/kg LPS i.p. Format: in vivo, Balb/c mice. A digest of the protocol:
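Balb/c mice (6 per group) dosed orally with 50 mg/kg compound, then 1 mg/kg LPS i.p. 30 min later; serum taken 90 or 120 min post-LPS. Serum TNF-α measured by ELISA; inhibition % calculated relative to model and blank (PBS) groups.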

The mark [3] stands for this setting: 1.5 h, blood 90 min after LPS, read-out: Inhibition rate (%) of LPS-stimulated TNF-α release, 90 min.
Where [4] appears, read: 2 h, blood 120 min after LPS, read-out: Inhibition rate (%) of LPS-stimulated TNF-α release, 120 min.

Molecules are shown by their SMILES. Read-outs that look alike come from different tables or passages of the source.

T1 sequence (Q07343 whole entry): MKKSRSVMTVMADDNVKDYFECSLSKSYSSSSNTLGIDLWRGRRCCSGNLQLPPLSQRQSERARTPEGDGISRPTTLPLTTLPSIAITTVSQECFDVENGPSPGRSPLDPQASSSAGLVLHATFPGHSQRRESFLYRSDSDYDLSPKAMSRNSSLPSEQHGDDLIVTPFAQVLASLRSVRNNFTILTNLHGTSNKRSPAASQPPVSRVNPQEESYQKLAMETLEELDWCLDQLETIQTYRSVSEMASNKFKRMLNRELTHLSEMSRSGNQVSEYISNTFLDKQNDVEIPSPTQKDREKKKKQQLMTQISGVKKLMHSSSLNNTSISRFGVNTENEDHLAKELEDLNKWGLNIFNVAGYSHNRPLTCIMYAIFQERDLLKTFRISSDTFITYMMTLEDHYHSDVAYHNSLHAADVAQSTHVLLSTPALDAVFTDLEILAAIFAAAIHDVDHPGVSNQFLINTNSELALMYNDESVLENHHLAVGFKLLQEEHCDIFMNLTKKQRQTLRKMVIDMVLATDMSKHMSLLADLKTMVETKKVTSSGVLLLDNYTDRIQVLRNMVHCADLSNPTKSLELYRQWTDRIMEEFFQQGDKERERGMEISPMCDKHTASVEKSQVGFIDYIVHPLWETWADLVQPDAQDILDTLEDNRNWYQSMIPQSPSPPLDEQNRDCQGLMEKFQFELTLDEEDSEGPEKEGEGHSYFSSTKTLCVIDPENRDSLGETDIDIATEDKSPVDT

Turning to `COc1ccc([C@@H]2CN(C(=O)[C@@H](O)CO)C[C@@]2(C)[C@@H](C)O)cc1OC1CN(c2ncc(C)cc2F)C1` [Compound 004, (S)-1-((3S,4S)-4-(3-((1-(3-fluoro-5-methylpyridin-2-yl)azetidin-3-yl)oxy)-4-methoxyphenyl)-3-((R)-1-hydroxyethyl)-3-methylpyrrolidin-1-yl)-2,3-dihydroxypropan-1-one], on PDE4B, the midpoint of inhibition, the IC50, lay at 0.93 nM and the “IC50 (PDE4D)/IC50 (PDE4B)” value came out at 1.20. Besides, in data set [1], the “inhibition rate based on clinical score AUC” value (“inhibition rate based” below) is 67.5% and the “Clinical score (endpoint)” value turned out to be 3.3. This molecule also displayed an IC50 at PDE4D of 1.12 nM. Besides, in the data set “Rat pharmacokinetic test”, the AUC(0-t) was determined as 2480 ng·h/mL, the highest concentration (Cmax) is 823 ng/mL and the Tmax was 25.2 min. The inhibition in vivo at 50 mg/kg in data set [2] (setting [3]) is 39.6%. In addition, the inhibition in vivo at 50 mg/kg in data set [2] (setting [4]) turned out to be 58.6%.

Take `COc1ccc([C@@H]2CN(C(=O)[C@@H](O)CO)C[C@@]2(C)[C@@H](C)O)cc1OC1CN(c2ccc(Cl)c(C)n2)C1` [Compound 011, (S)-1-((3S,4S)-4-(3-((1-(5-chloro-6-methylpyridin-2-yl)azetidin-3-yl)oxy)-4-methoxyphenyl)-3-((R)-1-hydroxyethyl)-3-methylpyrrolidin-1-yl)-2,3-dihydroxypropan-1-one]: at PDE4B, the IC50 was determined as 2.31 nM and the “IC50 (PDE4D)/IC50 (PDE4B)” value is 0.46. Moreover, in data set [1], the “inhibition rate based” value is reported as 49.3% and the “Clinical score (endpoint)” value worked out at 4.8. Also, the IC50 against PDE4D stood at 1.07 nM. For the same molecule, in “Rat pharmacokinetic test”, the AUC(0-t) was 294 ng·h/mL, the highest concentration (Cmax) came to 126 ng/mL and the Tmax stood at 25.2 min. The inhibition in vivo at 50 mg/kg in data set [2] (setting [3]) came to 47.4%. Also, the inhibition in vivo at 50 mg/kg in data set [2] (setting [4]) was found to be 63.3%.

On to `COc1ccc([C@@H]2CN(C(=O)[C@@H](O)CO)C[C@@]2(C)[C@@H](C)O)cc1OC1CN(c2ccc(C)cn2)C1` [Positive control compound, reference compound], for which, at PDE4B, the 50% inhibitory concentration (IC50) is 2.1 nM and the “IC50 (PDE4D)/IC50 (PDE4B)” value amounted to 0.20. Further, in data set [1], the “inhibition rate based” value turned out to be 42.3% and the “Clinical score (endpoint)” value is given as 4.4. Besides, it took 0.41 nM to reach half-maximal inhibition at PDE4D (IC50). Also, in “Rat pharmacokinetic test”, the AUC(0-t) was 190 ng·h/mL, the Cmax amounted to 68.2 ng/mL and the Tmax turned out to be 30 min. Further, the inhibition in vivo at 50 mg/kg in data set [2] (setting [3]) came out at 44.4%. The inhibition in vivo at 50 mg/kg in data set [2] (setting [4]) stood at 49%.

`COc1ccc([C@@H]2CN(C(=O)[C@@H](O)CO)C[C@@]2(C)[C@@H](C)O)cc1OC1CN(c2ccc(C)c(C)n2)C1` [Compound 007, (S)-1-((3S,4S)-4-(3-((1-(5,6-dimethylpyridin-2-yl)azetidin-3-yl)oxy)-4-methoxyphenyl)-3-((R)-1-hydroxyethyl)-3-methylpyrrolidin-1-yl)-2,3-dihydroxypropan-1-one]: on PDE4B, half-maximal inhibition (IC50) required 1.17 nM and the “IC50 (PDE4D)/IC50 (PDE4B)” value was found to be 3.37. In data set [1], the “inhibition rate based” value worked out at 77.2% and the “Clinical score (endpoint)” value is 3.1. On PDE4D, the IC50 amounted to 3.94 nM. For the same molecule, in “Rat pharmacokinetic test”, the AUC(0-t) was 1530 ng·h/mL, the maximum concentration (Cmax) came to 735 ng/mL and the Tmax stood at 30 min. In data set [2] (setting [3]), the inhibition in vivo at 50 mg/kg was 52.1%. In data set [2] (setting [4]), the inhibition in vivo at 50 mg/kg worked out at 66.4%.

By IC50 is commonly meant the point on the concentration scale where inhibition reaches its midpoint. Read a high IC50 as weaker potency in that assay. In general, AUC(0-t) refers to exposure summed from dosing to a finite time, without extrapolation to infinity. Read a low AUC(0-t) as less exposure. As a reminder, the Cmax is the peak of the concentration-time curve. The Tmax is the time at which the peak concentration occurs.
